Experimental data from the supplement of paper PMC13380429.

Assays:
Settings in all cases: 72 h
Caco-2 [1] = experiment: cell viability relative to DMSO; higher = less toxic
HepG2 [2] = experiment: as above
Calu-3 [3] = experiment: as above
Vero E6 [4] = experiment: as above
U2OS [5] = experiment: as above
Caco-2 [6] = experiment: drug sensitivity score (DSS) for viability; higher = more toxic; extreme values may be limits of the assay
HepG2 [7] = experiment: as above
Calu-3 [8] = experiment: as above
Vero E6 [9] = experiment: as above
U2OS [10] = experiment: as above
HepG2 [11] = experiment: relative viability EC50 (midpoint between 100% and the lowest measured viability); higher = less toxic
Calu-3 [12] = experiment: as above
Vero E6 [13] = experiment: as above
U2OS [14] = experiment: as above
Caco-2 [15] = experiment: as above

| SMILES | cell viability (Caco-2 [1]; 1 nM) | cell viability (Caco-2 [1]; 10 nM) | cell viability (Caco-2 [1]; 100 nM) | cell viability (Caco-2 [1]; 1000 nM) | cell viability (Caco-2 [1]; 10000 nM) | cell viability (HepG2 [2]; 1 nM) | cell viability (HepG2 [2]; 10 nM) | cell viability (HepG2 [2]; 100 nM) | cell viability (HepG2 [2]; 1000 nM) | cell viability (HepG2 [2]; 10000 nM) | cell viability (Calu-3 [3]; 1 nM) | cell viability (Calu-3 [3]; 10 nM) | cell viability (Calu-3 [3]; 100 nM) | cell viability (Calu-3 [3]; 1000 nM) | cell viability (Calu-3 [3]; 10000 nM) | cell viability (Vero E6 [4]; 1 nM) | cell viability (Vero E6 [4]; 10 nM) | cell viability (Vero E6 [4]; 100 nM) | cell viability (Vero E6 [4]; 1000 nM) | cell viability (Vero E6 [4]; 10000 nM) | cell viability (U2OS [5]; 1 nM) | cell viability (U2OS [5]; 10 nM) | cell viability (U2OS [5]; 100 nM) | cell viability (U2OS [5]; 1000 nM) | cell viability (U2OS [5]; 10000 nM) | drug sensitivity score (Caco-2 [6]) | drug sensitivity score (HepG2 [7]) | drug sensitivity score (Calu-3 [8]) | drug sensitivity score (Vero E6 [9]) | drug sensitivity score (U2OS [10]) | relative viability EC50 (HepG2 [11]) | relative viability EC50 (Calu-3 [12]) | relative viability EC50 (Vero E6 [13]) | relative viability EC50 (U2OS [14]) | relative viability EC50 (Caco-2 [15]) |
| --- | --- | --- | --- | --- | --- | --- | --- | --- | --- | --- | --- | --- | --- | --- | --- | --- | --- | --- | --- | --- | --- | --- | --- | --- | --- | --- | --- | --- | --- | --- | --- | --- | --- | --- | --- |
| Cc1n[nH]c(C)c1Cc1sc2c(c1C(=O)N1C[C@H](O)CO1)c(=O)n(C)c(=O)n2CC(C)C | 91.3% | 79.3% | 77.2% | 67.4% | 69% | 97% | 108% | 95% | 98.8% | 109% | 102% | 86.3% | 99.4% | 93.3% | 99.8% | 89.7% | 98.7% | 92.9% | 95.7% | 101% | 97.8% | 92.6% | 89.4% | 86.7% | 89.7% | 10.2 | 0 | 0 | 0 | 1.2 | > 10000 nM | > 10 µM | > 10 µM | > 10 µM |  |
| C=C(c1ccccc1OCc1cccc(Cl)c1)n1ccnc1 [croconazole] | 102% | 104% | 90.9% | 87.8% | 69.6% | 102% | 101% | 102% | 110% | 88% | 94.4% | 104% | 97.5% | 93.1% | 92.1% | 102% | 97% | 112% | 107% | 105% | 96.2% | 104% | 93.2% | 103% | 90% | 2.5 | 0 | 0 | 0 | 0 | > 10000 nM | > 10 µM | > 10 µM | > 10 µM |  |
| O=C(/C=C\n1cnc(-c2cc(C(F)(F)F)cc(C(F)(F)F)c2)n1)N1CC(F)(F)C1 [KPT-276] | 104% | 91.2% | 88.8% | 73.9% | 66.2% | 100% | 85.5% | 80% | 44.4% | 32.8% | 97.3% | 102% | 97.2% | 64.1% | 68.3% | 93.5% | 96.1% | 82.3% | 69.8% | 36.9% | 106% | 96% | 91.4% | 68% | 17.3% | 5.4 | 12.8 | 6.7 | 8.1 | 8.2 | 190 nM |  | 0.611 µM | 1.3 µM |  |
| O=C(CC(c1ccccc1)c1ccccc1)N1CCN(C(c2ccccc2)c2ccccc2)CC1 [Z160] | 99.9% | 103% | 97.1% | 92.9% | 67.8% | 88.7% | 104% | 88.5% | 95.6% | 57.7% | 104% | 92.8% | 104% | 93.9% | 114% | 93.7% | 99.1% | 94.9% | 99.8% | 100% | 101% | 99% | 99.1% | 97.2% | 88.6% | 2.6 | 2.9 | 0 | 0 | 0.1 |  | > 10 µM | > 10 µM | > 10 µM |  |
| C=CC(=O)Nc1cc2c(Nc3ccc(F)c(Cl)c3)ncnc2cc1OCCCN1CCOCC1 [canertinib] | 91.7% | 90.3% | 81.6% | 81.5% | 69.5% | 105% | 97.6% | 105% | 95.5% | 90.5% | 100% | 89.8% | 70.2% | 41.2% | 30.1% | 98.5% | 93.1% | 86.3% | 65.6% | 51% | 97.1% | 98.5% | 93.1% | 96.1% | 89.9% | 5.4 | 0 | 14.8 | 7.8 | 0 | > 10000 nM | 0.132 µM |  | > 10 µM |  |
| O=C(c1cccc(Cl)c1F)N1CCN(Cc2cccc(Nc3nccs3)n2)CC1 [MK-8745] | 92.1% | 94.2% | 91.7% | 86.5% | 70.7% | 105% | 115% | 101% | 54.7% | 37.7% | 92.6% | 88.5% | 92% | 85.1% | 92.2% | 99.2% | 101% | 99% | 90.2% | 78% | 102% | 99.5% | 98.5% | 98.4% | 69.1% | 2.8 | 8.7 | 0 | 1.6 | 1.6 | 676 nM | > 10 µM | > 10 µM |  |  |
| CC(=O)/N=c1/[nH]c(C)c(-c2ccc(Cl)c(S(=O)(=O)NCCO)c2)s1 [PIK-93] | 94% | 109% | 92.5% | 93.5% | 58.9% | 91.8% | 92.7% | 83.9% | 71.6% | 34.7% | 103% | 102% | 91% | 81.2% | 41.9% | 106% | 105% | 99% | 96.9% | 78.6% | 102% | 106% | 98.1% | 90.8% | 58.6% | 3.2 | 7.8 | 5.3 | 1.1 | 3.6 | 744 nM | 1.49 µM | > 10 µM |  |  |
| O=C1c2ccccc2C(Cc2ccnc(F)c2)(Cc2ccnc(F)c2)c2ccccc21 [DMP-543] | 97.2% | 100% | 92.5% | 81.2% | 72.9% | 90.1% | 100% | 94.4% | 95.4% | 89.4% | 103% | 92.1% | 85.9% | 92% | 81.3% | 101% | 101% | 100% | 97.7% | 94.8% | 99.8% | 105% | 96% | 96.6% | 95.1% | 3.3 | 0 | 1.7 | 0 | 0 | > 10000 nM | > 10 µM | > 10 µM | > 10 µM |  |
| CCN1CCN(c2cc3c(cc2F)c(=O)c(C(=O)O)cn3C2CC2)CC1 [enrofloxacin] |  |  |  |  |  |  |  |  |  |  |  |  |  |  |  |  |  |  |  |  |  |  |  |  |  |  | 0 | 0 | 0 | 0 |  |  |  |  |  |
| CCN(CC)CCCCNc1ncc2cc(-c3c(Cl)cccc3Cl)c(NC(=O)NC(C)(C)C)nc2n1 | 98.4% | 94.3% | 96% | 75.2% | 69.5% | 98.3% | 102% | 106% | 65.5% | 40.3% | 104% | 90% | 104% | 77.2% | 29.8% | 102% | 102% | 104% | 104% | 25.2% | 100% | 101% | 95.2% | 76.8% | 31.9% | 4.4 | 7.5 | 7.2 | 3.8 | 6.7 | 885 nM | 1.34 µM | 3.48 µM | 1.38 µM |  |
| O=C(Nc1cccc(Cl)c1)Nc1ncc(CCNc2ncnc3ccsc23)s1 [SNS-314] | 92.8% | 99% | 90.4% | 85.8% | 69% | 92.8% | 96.8% | 76.3% | 67.5% | 41.6% |  |  |  |  |  | 103% | 103% | 86.3% | 89.9% | 93.2% | 98.5% | 102% | 88.2% | 90.4% | 74.8% | 2.9 | 9.2 |  | 1.8 | 1.9 | 315 nM |  | > 10 µM |  |  |
| c1coc(CNc2ncnc3[nH]cnc23)c1 [kinetin] | 111% | 104% | 106% | 98.9% | 96.6% | 110% | 108% | 99% | 98.7% | 109% | 95.7% | 100% | 101% | 98.4% | 99.3% |  |  |  |  |  |  |  |  |  |  | 0 | 0 | 0 |  |  | > 10000 nM | > 10 µM |  |  | > 10 µM |
| CN(C)CCCC1(c2ccc(F)cc2)OCc2cc(C#N)ccc21 (configuration not stated) [citalopram] |  |  |  |  |  |  |  |  |  |  |  |  |  |  |  |  |  |  |  |  |  |  |  |  |  |  | 0 | 0 | 0 | 0 |  |  |  |  |  |
| Cc1ccc(NC(=O)C2(c3ccc4c(c3)OC(F)(F)O4)CC2)nc1-c1cccc(C(=O)O)c1 [lumacaftor] | 106% | 103% | 106% | 92.3% | 93.8% |  |  |  |  |  | 113% | 103% | 101% | 98.6% | 108% |  |  |  |  |  |  |  |  |  |  | 0 |  | 0 |  |  |  | > 10 µM |  |  | > 10 µM |
| COc1ccc2c(Oc3ccc(NC(=O)c4c(C)n(CC(C)(C)O)n(-c5ccccc5)c4=O)nc3)ccnc2c1 [AMG458] | 99.6% | 106% | 90.8% | 95.9% | 72% | 99.3% | 92.2% | 98.2% | 88.3% | 65.8% | 99.1% | 106% | 100% | 92.7% | 86.6% | 104% | 103% | 104% | 98.6% | 102% | 102% | 116% | 99.3% | 103% | 93.3% | 1.8 | 3 | 0.5 | 0 | 0 |  | > 10 µM | > 10 µM | > 10 µM |  |
| CCOC(=O)c1ncc2[nH]c3cccc(OC(C)C)c3c2c1C | 101% | 113% | 109% | 103% | 75% | 114% | 102% | 137% | 98.8% | 109% | 88.7% | 112% | 99.1% | 104% | 74.9% |  |  |  |  |  |  |  |  |  |  | 0.8 | 0 | 0.8 |  |  | > 10000 nM |  |  |  | > 10 µM |
| COc1ccc(CNC(=O)Nc2ncc([N+](=O)[O-])s2)cc1 | 105% | 103% | 95.5% | 103% | 73.7% | 113% | 107% | 102% | 99.8% | 30.3% | 104% | 107% | 94.9% | 107% | 96.5% | 106% | 104% | 101% | 102% | 97.2% | 96.1% | 104% | 96.5% | 102% | 90.8% | 0.9 | 3.9 | 0 | 0 | 0 | 3150 nM | > 10 µM | > 10 µM | > 10 µM |  |
